Measurements: patent US20260008811A1, “BIOACTIVE PEPTIDES AND COMPOSITIONS COMPRISING THEM” (ESPIKEM S.R.L., priority 2019, published 2026)
Non-standard residues stand in square brackets, D forms with d.

Experiments:
Type I procollagen = test: Western blot of type I procollagen / soluble type I collagen in fibroblast cultures after 72 hours of treatment; type: cell-based, human; conditions: fibroblasts, peptide 20 mM, no FBS, compared with TGF-β1, SA1III, Peptide 1, Peptide 2 (FIG. 1)
Description: Neonatal human dermal fibroblasts (NHDF) have been obtained from Lonza. Cultures of adult dermal fibroblasts have been prepared from cutaneous skin biopsies of healthy donors having different ages, as described in Pani et al. J. Alzheimer's Dis. (2009) 18:829-41, C6 ([…]), C3 (person) and C12 (person). A written informed consent to use these dermal cells was obtained from all the donor subjects involved, according to the Guidelines indicated by the Ethics Committee of the Careggi University Hospital (Florence, Italy) and by the Helsinki Declaration of 1975, as reviewed in the 1983. All cell cultures have been subjected to a similar number of steps, from 6 to 9, at the beginning of the experiments, and were preserved in the modified Dulbecco Eagle culture medium (DMEM, Lonza) added with FBS 10% (Gibco), 100 units/ml of penicillin G, 0.05 mg/ml of streptomycin and glutamine 2 mM (PAN-Biotech GmbH), at 37° C. in a humidified incubator containing 5% of CO2.
The cells were seeded in 12-wells plates (30000 cells per well) and treated the day after with the peptide AAT11RI (20 mM). […]
All treatments have been carried out in the absence of FBS to avoid interferences in the electrophoretic migration. […] The protein content in the lysates was measured using the Bio-Rad DC protein assay kit. […]

extracellular collagen = conditions: fibroblasts obtained from subjects of various ages; cited from earlier work

Substance | ability to increase the concentration of procollagen in vitro (Type I procollagen) | levels of extracellular collagen (extracellular collagen)
Ac-DAsn-DVal-DVal-DLys-NH2 (Ac-[dN][dV][dV][dK]-NH2) [AAT11RI] | surprisingly higher than all the other products tested | 
SA1-III: C-terminal peptide fragment 409-418 of the serpin A1 molecule, positive control (MGKVVNPTQK) |  | increased levels of extracellular collagen
